According to patent US20240197694A1, “MODIFIED PROTEINS AND PROTEIN BINDERS” (Cullgen (Shanghai), Inc., priority 2021, published 2024):

target: T1, DCAF1 (1058-1396) (Homo sapiens, UniProt Q9Y4B6); test: Surface plasmon resonance (SPR) binding assay, compound binding to DCAF1; details: immobilized DCAF1 (1058-1396), steady state affinity model, 25° C.
T1 construct: a fragment of a DCAF1 protein that includes amino acid residues A1058 to E1396; His6 (N, cleaved yes); made in house; host or cells: Sf9 insect cells (Bac-to-Bac baculovirus, pFastBacHT vector)
T1 sequence (Q9Y4B6 1058-1396): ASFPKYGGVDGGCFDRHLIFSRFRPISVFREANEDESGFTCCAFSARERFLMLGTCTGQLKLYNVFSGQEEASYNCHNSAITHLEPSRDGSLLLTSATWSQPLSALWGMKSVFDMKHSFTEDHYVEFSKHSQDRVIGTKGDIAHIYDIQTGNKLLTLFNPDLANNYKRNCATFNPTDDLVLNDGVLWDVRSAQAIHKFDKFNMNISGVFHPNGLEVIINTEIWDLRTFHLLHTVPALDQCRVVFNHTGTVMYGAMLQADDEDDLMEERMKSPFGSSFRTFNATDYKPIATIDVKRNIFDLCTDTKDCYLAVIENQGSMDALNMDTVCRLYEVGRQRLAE
Experimental: Binding affinities of specific exemplary compounds to DCAF1 (1058-1396), which is a fragment of a DCAF1 protein that includes amino acid residues A1058 to E1396 were determined by a surface plasmon resonance (SPR) assay. Briefly, purified DCAF1 (1058-1396) proteins were immobilized at a density of 9,000-11,000 resonance units (RUs) on a CMS sensor chip. Sensorgrams were recorded at different concentrations of compounds in multi-cycle kinetic format. Data were analyzed using a steady state affinity model through Biacore Evaluation Software to provide equivalent dissociation constants (Kd).
Binding affinities of compounds to DCAF1 were determined by a surface plasmon resonance (SPR) assay. Purified DCAF1 (1058-1396) proteins were immobilized on a CMS sensor chip, and a dose range of compound solutions were injected in multi-cycle kinetic format. Data were analyzed using a steady state model to provide equivalent dissociation constants (Kd).
Protein Expression and Purification: Human DCAF1 (1058-1396) (UniPro: Q9Y4B6) coding sequences were cloned into pFastBacHT vector and were expressed in Sf9 cells using Bac-to-Bac baculovirus expression system (Thermo Fisher Scientific). The expression construct for DCAF1 (1058-1396) included a N-terminal His6-tag to facilitate the purification. DCAF1 (1058-1396) proteins were obtained from supernatants of cell lysates and purified through sequential application of Ni affinity chromatography (Ni-NTA column, Bio-Rad), Tag removal using TEV protease, and size-exclusion chromatography (Superdex 200 column, GE Healthcare).
Surface plasmon resonance (SPR) binding assays: SPR studies were performed on a Biacore X100 plus or T200 instrument (GE Healthcare). Immobilization of purified DCAF1 (1058-1396) was carried out at 25° C. using a CMS sensor chip. The surface was pre-equilibrated in HBS-EP running buffer (10 mM HEPES, pH 7.4, 150 mM NaCl, 3 mM EDTA, 0.05% P20), before being activated with EDC/NHS. DCAF1 (1058-1396) was immobilized through amino groups to a density of 9,000-12,000 resonance units (RUs) on flow cell channel 2 (FC2), whereas flow cell channel 1 (FC1) was used as reference. Both DCAF1 immobilized and reference surfaces were deactivated with 1 M ethanolamine.
Interaction experiments were performed at 25° C. The compounds were prepared and serially diluted in HBS-EP running buffer containing final 2% DMSO (6-point two-fold serial dilution, 100 μM -3.125 μM final concentration of compounds). Compound Solutions were injected individually in multi-cycle kinetic format without regeneration (flow rate 30 μL/min, association time 60 s, dissociation time 60 s). Sensorgrams from reference surfaces and blank injections were subtracted from the raw data (double-referenced) and the data was solvent-corrected prior to analysis. Data were analyzed using a steady state affinity model through Biacore Evaluation Software to provide equivalent dissociation constants (Kd).

SMILES	Kd
Cc1ccc2c(c1)[C@@H]1CN(C)CC[C@H]1N2 (racemic) [CPD-032, trans-2,8-dimethyl-2,3,4,4a,5,9b-hexahydro-1H-pyrido [4,3-b]indole]	> 100 µM
Cc1ccc2c(c1)[C@H]1CN(C)CC[C@H]1N2 (racemic) [CPD-033, cis-2,8-dimethyl-2,3,4,4a,5,9b-hexahydro-1H-pyrido[4,3-b]indole]	> 100 µM
Cc1ccc2c(c1)[C@@H]1CN(C)CC[C@H]1N2C (racemic) [CPD-034, trans-2,5,8-trimethyl-2,3,4,4a,5,9b-hexahydro-1H-pyrido[4,3-b]indole]	> 100 µM
Cc1ccc2c(c1)[C@@H]1CN(C)CC[C@H]1N2C(=O)/C=C/c1nccs1 (racemic) [CPD-035, (E)-1-(trans-2,8-dimethyl-1,2,3,4,4a,9b-hexahydro-5H-pyrido [4,3-b]indol-5-yl)-3-(thiazol-2-yl)prop-2-en-1-one]	> 100 µM
Cc1ccc2c(c1)[C@H]1CN(C)CC[C@H]1N2C (racemic) [CPD-036, cis-2,5,8-trimethyl-2,3,4,4a,5,9b-hexahydro-1H-pyrido [4,3-b]indole]	> 100 µM
Cc1ccc2c(c1)[C@H]1CN(C)CC[C@H]1N2C(=O)/C=C/c1nccs1 (racemic) [CPD-037, (E)-1-(cis-2,8-dimethyl-1,2,3,4,4a,9b-hexahydro-5H-pyrido [4,3-b]indol-5-yl)-3-(thiazol-2-yl)prop-2-en-1-one]	> 100 µM
Cc1cccc2c1[C@@H]1CN(C)CC[C@H]1N2 (racemic) [CPD-039, trans-2,9-dimethyl-2,3,4,4a,5,9b-hexahydro-1H-pyrido [4,3-b]indole]	> 100 µM
Cc1cccc2c1[C@@H]1CN(C)CC[C@H]1N2C (racemic) [CPD-040, trans-2,5,9-trimethyl-2,3,4,4a,5,9b-hexahydro-1H-pyrido[4,3-b]indole]	> 100 µM
Cc1cccc2c1[C@H]1CN(C)CC[C@H]1N2 (racemic) [CPD-041, cis-2,9-dimethyl-2,3,4,4a,5,9b-hexahydro-1H-pyrido[4,3-b]indole]	> 100 µM
Cc1cccc2c1[C@H]1CN(C)CC[C@H]1N2C (racemic) [CPD-042, cis-2,5,9-trimethyl-2,3,4,4a,5,9b-hexahydro-1H-pyrido[4,3-b]indole]	> 100 µM
Cn1cccc1CNCc1ccncc1 [CPD-001, 1-(1-methyl-1H-pyrrol-2-yl)-N-(pyridin-4-ylmethyl)methanamine]	40 to 70 µM
Cn1cccc1CNCc1cccnc1 [CPD-002, 1-(1-methyl-1H-pyrrol-2-yl)-N-(pyridin-3-ylmethyl)methanamine]	> 100 µM
Cn1cccc1CNCc1ccccn1 [CPD-003, 1-(1-methyl-1H-pyrrol-2-yl)-N-(pyridin-2-ylmethyl)methanamine]	> 100 µM
NCCCCCCn1cccc1C(=O)NCc1ccncc1 [CPD-004, 1-(6-aminohexyl)-N-(pyridin-4-ylmethyl)-1H-pyrrole-2-carboxamide]	40 to 70 µM
NCCCCCCn1cccc1CNCc1ccncc1 [CPD-005, 6-(2-(((pyridin-4-ylmethyl)amino)methyl)-1H-pyrrol-1-yl)hexan-1-amine]	40 to 70 µM
NCCOCCOCCOCCn1cccc1CNCc1ccncc1 [CPD-006, 2-(2-(2-(2-(2-(((pyridin-4-ylmethyl)amino)methyl)-1H-pyrrol-1-yl)ethoxy)ethoxy)ethoxy)ethan-1-amine]	40 to 70 µM
CN1Cc2ccccc2CC1CNc1ncccc1F (centres unmarked) [CPD-007, 3-fluoro-N-((2-methyl-1,2,3,4-tetrahydroisoquinolin-3-yl)methyl)pyridin-2-amine]	> 100 µM
Clc1ccc2[nH]c3c(c2c1)CN(CCc1cnn[nH]1)CC3 [CPD-008, 2-(2-(1H-1,2,3-triazol-5-yl)ethyl)-8-chloro-2,3,4,5-tetrahydro-1H-pyrido[4,3-b]indole]	40 to 70 µM
CC(C)c1ccc2[nH]c3c(c2c1)CN(CCc1cnn[nH]1)CC3 [CPD-009, 2-(2-(1H-1,2,3-triazol-5-yl)ethyl)-8-isopropyl-2,3,4,5-tetrahydro-1H-pyrido[4,3-b]indole]	40 to 70 µM

SMILES	Kd
CC(C)N1CCc2c(c3ccccc3n2CC(=O)O)C1 [CPD-010, 2-(2-isopropyl-1,2,3,4-tetrahydro-5H-pyrido[4,3-b]indol-5-yl)acetic acid]	> 100 µM
CC(C)(C)c1ccc2[nH]c3c(c2c1)CN(CCc1cnn[nH]1)CC3 [CPD-011, 2-(2-(1H-1,2,3-triazol-5-yl)ethyl)-8-(tert-butyl)-2,3,4,5-tetrahydro-1H-pyrido[4,3-b]indole]	40 to 70 µM
Fc1ccc2[nH]c3c(c2c1)CN(CCc1cnn[nH]1)CC3 [CPD-012, 2-(2-(1H-1,2,3-triazol-5-yl)ethyl)-8-fluoro-2,3,4,5-tetrahydro-1H-pyrido[4,3-b]indole]	≤ 40 µM
Cc1ccc2[nH]c3c(c2c1)CN(CCc1cnn[nH]1)CC3 [CPD-013, 2-(2-(1H-1,2,3-triazol-5-yl)ethyl)-8-methyl-2,3,4,5-tetrahydro-1H-pyrido[4,3-b]indole]	40 to 70 µM
NCCCCCCn1c2c(c3cc(F)ccc31)CN(CCc1cnn[nH]1)CC2 [CPD-014, 6-(2-(2-(1H-1,2,3-triazol-5-yl)ethyl)-8-fluoro-1,2,3,4-tetrahydro-5H-pyrido[4,3-b]indol-5-yl)hexan-1-amine]	40 to 70 µM
CN1Cc2ccccc2CC1CNC(=O)c1cncc(O)n1 (centres unmarked) [CPD-015, 6-hydroxy-N-((2-methyl-1,2,3,4-tetrahydroisoquinolin-3-yl)methyl)pyrazine-2-carboxamide]	> 100 µM
NCCOCCOCCOCCn1c2c(c3cc(F)ccc31)CN(CCc1cnn[nH]1)CC2 [CPD-016, 2-(2-(2-(2-(2-(2-(1H-1,2,3-triazol-5-yl)ethyl)-8-fluoro-1,2,3,4-tetrahydro-5H-pyrido[4,3-b]indol-5-yl)ethoxy)ethoxy)ethoxy)ethan-1-amine]	40 to 70 µM
CN1Cc2cc(NCCOCCOCCOCCN)ccc2CC1CNc1ncccc1F (centres unmarked) [CPD-017, N-(2-(2-(2-(2-aminoethoxy)ethoxy)ethoxy)ethyl)-3-(((3-fluoropyridin-2-yl)amino)methyl)-2-methyl-1,2,3,4-tetrahydroisoquinolin-7-amine]	40 to 70 µM
CN1Cc2cc(NCCCCCCN)ccc2CC1CNc1ncccc1F (centres unmarked) [CPD-018, N1-(3-(((3-fluoropyridin-2-yl)amino)methyl)-2-methyl-1,2,3,4-tetrahydroisoquinolin-7-yl)hexane-1,6-diamine]	40 to 70 µM
Cc1ccc2[nH]c3c(c2c1)CN(C)CC3 [CPD-019, 2,8-dimethyl-2,3,4,5-tetrahydro-1H-pyrido[4,3-b]indole]	40 to 70 µM
Cc1ccc2c(c1)c1c(n2C)CC[N+](C)(C)C1 [CPD-020, 2,2,5,8-tetramethyl-2,3,4,5-tetrahydro-1H-2λ^4-pyrido[4,3-b]indol-3-ylium]	> 100 µM
Cc1ccc2[nH]c3c(c2c1)C[N+](C)(C)CC3 [CPD-021, 2,2,8-trimethyl-2,3,4,5-tetrahydro-1H-2λ^4-pyrido[4,3-b]indol-3-ylium]	> 100 µM
Cc1ccc2c(c1)c1c(n2C)CCN(C)C1 [CPD-022, 2,5,8-trimethyl-2,3,4,5-tetrahydro-1H-pyrido[4,3-b]indole]	> 100 µM
COC(=O)NCCN1CCc2ccccc2C1 [CPD-023, methyl (2-(3,4-dihydroisoquinolin-2(1H)-yl)ethyl)carbamate]	70 to 100 µM
Cc1ccc(CNCc2cnc[nH]2)o1 [CPD-024, N-((1H-imidazol-5-yl)methyl)-1-(5-methylfuran-2-yl) methanamine]	> 100 µM
COc1cc(CNCc2cnc[nH]2)ccn1 [CPD-025, N-((1H-imidazol-5-yl)methyl)-1-(2-methoxypyridin-4-yl) methanamine]	> 100 µM
O=c1cc(CNCc2cnc[nH]2)cc[nH]1 [CPD-026, 4-((((1H-imidazol-5-yl)methyl)amino)methyl)pyridin-2(1H)-one]	> 100 µM
COc1cncc(CNCc2cnc[nH]2)c1 [CPD-027, N-((1H-imidazol-5-yl)methyl)-1-(5-methoxypyridin-3-yl) methanamine]	> 100 µM
COc1cc(C)cc(CNCc2cnc[nH]2)c1 [CPD-028, N-((1H-imidazol-5-yl)methyl)-1-(3-methoxy-5-methylphenyl) methanamine]	> 100 µM
